The record followed here is patent US20090155337A1, “METHOD AND AGENT FOR IN-SITU STABILIZATION OF VASCULAR TISSUE” (ENDOLOGIX, INC., priority 2007, published 2009).

This assay deals with collagen. The assay is described as follows: Shrinkage temperature testing of pericardial tissue fixed (cross-linked) in EGCG/PBS. To be noted: for Shrinkage Temperature: pH 7.42, 37° C., fresh tissue control 62.6 +/− 0.6. The method, then:
A 7 cm×7 cm piece of pericardial tissue was fixed in 40 ml of 0.5% EGCG/phosphate buffered saline (PBS), pH 7.42 in a 100 mm petri dish at 37° C., 82 rpm shaking speed, for 15 min. After 15 minutes, the tissue was quickly rinsed with PBS. Three samples were cut out for immediate shrinkage temperature testing (Group A). Shrinkage temperature can be an indication of the stability of the tissue. Increased shrinkage temperature is associated with an increased resistance to degradation. An additional 7 cm×7 cm piece of pericardial tissue was fixed in 40 ml of 0.5% EGCG/PBS, pH 7.42 in a 100 mm petri dish at 37° C. for 48 hours and quickly rinsed in PBS for 15 minutes. Six samples were cut out for shrinkage temperature testing (Group B). Six samples of fresh pericardial tissue were also cut for shrinkage temperature testing (Group C—Control Group).

Consider `O=C(O[C@@H]1Cc2c(O)cc(O)cc2O[C@@H]1c1cc(O)c(O)c(O)c1)c1cc(O)c(O)c(O)c1` [EGCG, epigallocatechin gallate], for which the “Shrinkage Temperature” value reads like this: (Group A: pericardial tissue cross-linked for 15 min in 0.5% EGCG/PBS) 72.2 +/− 0.5 °C; (Group B: pericardial tissue cross-linked for 48 hours in 0.5% EGCG/PBS) 86.3 +/− 0.6 °C.
As for Catechin, under “within 15 minutes of application under physiological conditions”, the “Stability of collagen via cross-linking” value is listed as “increases the stability of collagen”.
